Measured values: patent US11802120B2, “Fused cyclic urea derivatives as CRHR2 antagonist” (RaQualia Pharma Inc., priority 2018, dated 2023)

These compounds were tested against T1, human CRHR2-alpha (Homo sapiens, UniProt Q13324) (assay: cAMP functional assay for human CRHR2 (LANCE Ultra cAMP, TR-FRET)). Details: CHO-K1 cells expressing human CRHR2-alpha, agonist human urocortin2 at EC80, cAMP; read-out: IC50 against CRHR2.
T1 sequence (Q13324 1-411): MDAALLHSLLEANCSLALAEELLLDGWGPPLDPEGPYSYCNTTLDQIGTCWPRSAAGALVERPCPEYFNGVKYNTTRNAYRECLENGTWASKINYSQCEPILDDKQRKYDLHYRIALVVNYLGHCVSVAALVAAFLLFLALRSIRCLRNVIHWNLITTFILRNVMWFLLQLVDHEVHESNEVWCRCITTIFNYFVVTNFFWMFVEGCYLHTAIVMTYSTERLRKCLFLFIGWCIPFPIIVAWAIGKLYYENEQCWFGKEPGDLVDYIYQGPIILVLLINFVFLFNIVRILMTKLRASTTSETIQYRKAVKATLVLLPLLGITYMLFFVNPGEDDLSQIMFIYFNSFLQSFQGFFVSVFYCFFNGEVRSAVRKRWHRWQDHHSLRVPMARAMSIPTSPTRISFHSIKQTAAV
Type: cell-based
Outline: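 Inhibition of agonist-driven cAMP was assessed in recombinant CHO-K1 cells at 25° C, using 30 min compound pretreatment and 30 min stimulation with EC80 human urocortin2 (CRHR2) or CRF (CRHR1). IC50 came from dose-response fitting.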

IC50, < 0.3 µM:
CNc1ccc(-n2c(=O)n(C[C@H]3CC[C@H](NC(=O)c4cc(Cl)cnc4C(F)F)CC3)c3ccccc32)cn1 [Example 380, 5-chloro-2-(difluoromethyl)-N-((1r,4r)-4-((3-(6-(methyl-amino)pyridin-3-yl)-2-oxo-2,3-dihydro-1H-benzo[d]imidazol-1-yl)methyl)cyclo-hexyl)nicotinamide]
CNC(=O)c1cc2cc(-n3c(=O)n(C[C@H]4CC[C@H](NC(=O)c5cc(Cl)cnc5C)CC4)c4ccccc43)ccc2n1C [Example 404, 5-(3-(((1r,4r)-4-(5-chloro-2-methylnicotinamido)cyclo-hexyl)methyl)-2-oxo-2,3-dihydro-1H-benzo[d]imidazol-1-yl)-N,1-dimethyl-1H-indole-2-carboxamide]
COc1ccc(-n2c(=O)n(C[C@H]3CC[C@H](NC(=O)c4cc(Cl)ccc4C)CC3)c3ccccc32)cn1 [Example 223, 5-chloro-N-((1r,4r)-4-((3-(6-methoxypyridin-3-yl)-2-oxo-2,3-dihydro-1H-benzo[d]imidazol-1-yl)methyl)cyclo-hexyl)-2-methylbenzamide]
CNc1cc(C)c(-n2c(=O)n(C[C@H]3CC[C@H](NC(=O)c4cc(Cl)cnc4C(F)F)CC3)c3ccccc32)cn1 [Example 465, 5-chloro-2-(difluoromethyl)-N-((1r,4r)-4-((3-(4-methyl-6-(methylamino)pyridin-3-yl)-2-oxo-2,3-dihydro-1H-benzo[d]imidazol-1-yl)methyl)cyclohexyl)nicotinamide]
Cc1ncc(Cl)cc1C(=O)N[C@H]1CC[C@H](Cn2c(=O)n(-c3ccc(C=O)cc3C#N)c3ccccc32)CC1 [Example 306, 5-chloro-N-((1r,4r)-4-((3-(2-cyano-4-formylphenyl)-2-oxo-2,3-dihydro-1H-benzo[d]imidazol-1-yl)methyl)cyclo-hexyl)-2-methylnicotinamide]
COc1ccc(-n2c(=O)n(C[C@H]3CC[C@H](NC(=O)c4cc(Cl)cnc4C(F)F)CC3)c3ccccc32)cn1 [Example 323, 5-chloro-2-(difluoromethyl)-N-((1r,4r)-4-((3-(6-methoxy-pyridin-3-yl)-2-oxo-2,3-di-hydro-1H-benzo[d]imidazol-1-yl)methyl)cyclohexyl)nico-tinamide]
Cn1cc(-c2cccc(-n3c(=O)n(C[C@H]4CC[C@H](NC(=O)c5cc(Cl)cnc5C(F)F)CC4)c4ccccc43)c2)cn1 [Example 681, 5-chloro-2-(difluoromethyl)-N-((1r,4r)-4-((3-(3-(1-methyl-1H-pyrazol-4-yl)phenyl)-2-oxo-2,3-dihydro-1H-benzo [d]imidazol-1-yl)methyl)cyclo-hexyl)nicotinamide]
COCCN(C)c1ccc(-n2c(=O)n(C[C@H]3CC[C@H](NC(=O)c4cc(Cl)cnc4C)CC3)c3ccccc32)cn1 [Example 53, 5-chloro-N-((1r,4r)-4-((3-(6-((2-methoxyethyl)(methyl)amino)pyridin-3-yl)-2-oxo-2,3-dihydro-1H-benzo[d]imidazol-1-yl)methyl)cyclohexyl)-2-methylnicotinamide]
COc1ccc(C#N)c(-n2c(=O)n(C[C@H]3CC[C@H](NC(=O)c4cc(Cl)cnc4C)CC3)c3ccccc32)c1 [Example 259, 5-chloro-N-((1r,4r)-4-((3-(2-cyano-5-methoxyphenyl)-2-oxo-2,3-dihydro-1H-benzo [d]imidazol-1-yl)methyl)cyclo-hexyl)-2-methylnicotinamide]
Cc1ncc(Cl)cc1C(=O)N[C@H]1CC[C@H](Cn2c(=O)n(-c3ccc(C(=O)NCc4ccon4)nc3)c3ccccc32)CC1 [Example 176, 5-(3-(((1r,4r)-4-(5-chloro-2-methylnicotinamido)cyclo-hexyl)methyl)-2-oxo-2,3-dihydro-1H-benzo[d]imidazol-1-yl)-N-(isoxazol-3-ylmethyl) picolinamide]
Cc1ncc(Cl)cc1C(=O)N[C@H]1CC[C@H](Cn2c(=O)n(-c3ccc(-c4ccc(N)nc4)nc3)c3ccccc32)CC1 [Example 216]
O=C(N[C@H]1CC[C@H](Cn2c(=O)n(-c3cncc(-c4ncco4)c3)c3ccccc32)CC1)c1cc(Cl)cnc1C(F)F [Example 688, 5-chloro-2-(difluoromethyl)-N-((1r,4r)-4-((3-(5-(oxazol-2-yl)pyridin-3-yl)-2-oxo-2,3-dihydro-1H-benzo[d]imidazol-1-yl)methyl)cyclohexyl) nicotinamide]
COCOCCn1nc(C)c2cc(-n3c(=O)n(C[C@H]4CC[C@H](NC(=O)c5cc(Cl)cnc5C)CC4)c4ccccc43)ccc21 [Example 229, 5-chloro-N-((1r,4r)-4-((3-(1-(2-(methoxymethoxy)ethyl)-3-methyl-1H-indazol-5-yl)-2-oxo-2,3-dihydro-1H-benzo[d]imidazol-1-yl)methyl)cyclo-hexyl)-2-methylnicotinamide]
Cc1ncc(Cl)cc1C(=O)N[C@H]1CC[C@H](Cn2c(=O)n(-c3ccc(C(=O)Nc4cncnc4)nc3)c3ccccc32)CC1 [Example 178, 5-(3-(((1r,4r)-4-(5-chloro-2-methylnicotinamido)cyclo-hexyl)methyl)-2-oxo-2,3-dihydro-1H-benzo[d]imidazol-1-yl)-N-(pyrimidin-5-yl) picolinamide]
Cc1ncc(Cl)cc1C(=O)N[C@H]1CC[C@H](Cn2c(=O)n(Cc3cccc(C#N)c3)c3ccccc32)CC1 [Example 242, 5-chloro-N-((1r,4r)-4-((3-(3-cyanobenzyl)-2-oxo-2,3-dihydro-1H-benzo[d]imidazol-1-yl)methyl)cyclohexyl)-2-methylnicotinamide]
Cc1ncc(Cl)cc1C(=O)N[C@H]1CC[C@H](Cn2c(=O)n(-c3ccc(C(=O)Nc4ccn(C)n4)nc3)c3ccccc32)CC1 [Example 173, 5-(3-(((1r,4r)-4-(5-chloro-2-methylnicotinamido)cyclohexyl)methyl)-2-oxo-2,3-dihydro-1H-benzo[d]imidazol-1-yl)-N-(1-methyl-1H-pyrazol-3-yl)picolinamide]
O=C(N[C@H]1CC[C@H](Cn2c(=O)n(-c3ccc4ncncc4c3)c3ccccc32)CC1)c1cc(Cl)cnc1C(F)F [Example 394, 5-chloro-2-(difluoromethyl)-N-((1r,4r)-4-((2-oxo-3-(quinazolin-6-yl)-2,3-dihydro-1H-benzo[d]imidazol-1-yl)methyl)cyclohexyl)nicotinamide]
O=C(NCCF)c1ccc(-n2c(=O)n(C[C@H]3CC[C@H](NC(=O)c4cc(Cl)cnc4C(F)(F)F)CC3)c3ccccc32)cn1 [Example 410, 5-(3-(((1r,4r)-4-(5-chloro-2-(trifluoromethyl)nicotinamido)cyclohexyl)methyl)-2-oxo-2,3-dihydro-1H-benzo[d]imidazol-1-yl)-N-(2-fluoroethyl) picolinamide]
Cn1ccc2cc(-n3c(=O)n(C[C@H]4CC[C@H](NC(=O)c5cc(Cl)cnc5C(F)F)CC4)c4cccnc43)cnc21 [Example 730, 5-chloro-2-(difluoromethyl)-N-((1r,4r)-4-((3-(1-methyl-1H-pyrrolo[2,3-b]pyridin-5-yl)-2-oxo-2,3-dihydro-1H-imidazo[4,5-b]pyridin-1-yl)methyl)cyclohexyl)nicotinamide]
O=C(N[C@H]1CC[C@H](Cn2c(=O)n(-c3ccc(N4CCCCC4=O)nc3)c3ccccc32)CC1)c1cc(Cl)cnc1C(F)F [Example 509, 5-chloro-2-(difluoromethyl)-N-((1r,4r)-4-((2-oxo-3-(6-(2-oxopiperidin-1-yl)pyridin-3-yl)-2,3-dihydro-1H-benzo[d]imidazol-1-yl)methyl)cyclohexyl)nicotinamide]
CNc1ncc(-n2c(=O)n(C[C@H]3CC[C@H](NC(=O)c4cc(Cl)cnc4C)CC3)c3ccccc32)cc1C [Example 133, 5-chloro-2-methyl-N-((1r,4r)-4-((3-(5-methyl-6-(methyl-amino)pyridin-3-yl)-2-oxo-2,3-dihydro-1H-benzo[d]imidazol-1-yl)methyl)cyclohexyl) nicotinamide]
O=C(Cn1c(=O)n(C[C@H]2CC[C@H](NC(=O)c3cc(Cl)ccc3C(F)(F)F)CC2)c2ccccc21)c1ccccc1 [Example 286, 5-chloro-N-((1r,4r)-4-((2-oxo-3-(2-oxo-2-phenylethyl)-2,3-dihydro-1H-benzo[d]imidazol-1-yl)methyl)cyclohexyl)-2-(trifluoromethyl)benzamide]
Cc1ncc(Cl)cc1C(=O)N[C@H]1CC[C@H](Cn2c(=O)n(-c3ccc(NC[C@@H]4CCCO4)nc3)c3ccccc32)CC1 [Example 109, 5-chloro-2-methyl-N-((1S,4r)-4-((2-oxo-3-(6-((((S)-tetrahydro-furan-2-yl)methyl)amino)pyridin-3-yl)-2,3-dihydro-1H-benzo[d]imidazol-1-yl)methyl)cyclohexyl)nicotinamide]
